This passage reports TGI results from PubChem BioAssay (NCI).

Molecules are shown by their SMILES.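 Protocol summary: plate cells (96-well), add compound at 5 concentrations, incubate 48 h, interpolate endpoints linearly. At the TGI there is no net growth.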 Where only a bound is given, the exact number is not on record here.

Test systems include DMS 114 small cell lung; XF 498 CNS; M19-MEL melanoma; DLD-1 colon; DMS 273 small cell lung; KM20L2 colon; HOP-18 NSCLC; SNB-78 CNS; RXF-631 renal.
Holding throughout (test): growth of human tumour cells (NCI), 48 h

On to `O=C(c1ccco1)N(C(=S)N1CCN(c2ccccn2)CC1)c1ccccc1`, for which the TGI in the assay with DMS 114 small cell lung, in the assay on XF 498 CNS, in the assay on M19-MEL melanoma, in the assay on DLD-1 colon, in the assay with DMS 273 small cell lung and with KM20L2 colon was > 100 µM each time. In addition, the TGI in the assay with HOP-18 NSCLC and in the assay on SNB-78 CNS was > 100 µM in each case.
Turning to `COc1ccc(/C(Cl)=C(\C=O)c2ccc(Cl)cc2)cc1OC`, the TGI with DMS 114 small cell lung was 59.5 µM; in the assay on M19-MEL melanoma, 48.3 µM; in the assay on RXF-631 renal it was > 100 µM; with DLD-1 colon, > 100 µM; in the assay on DMS 273 small cell lung, > 100 µM; in the assay with KM20L2 colon, 31.9 µM. Besides, the TGI in the assay with HOP-18 NSCLC and in the assay on SNB-78 CNS was > 100 µM each time.
Turning to `C=CCn1c(=N)/c(=C(\N)O)s/c1=C1/SC(=S)N(c2ccc(C)cc2)C1=O`, the TGI with M19-MEL melanoma and with HOP-18 NSCLC was > 100 µM each time.
Turning to `CN1NC(c2ccccc2)=C(C#N)C(=O)CC1c1ccc(Br)cc1` (centres undefined), the TGI is 78.2 µM in the assay with XF 498 CNS, > 100 µM in the assay on DLD-1 colon, > 100 µM with HOP-18 NSCLC and > 100 µM in the assay with SNB-78 CNS.
As to `CC[n+]1c(/C=C/c2ccc(N(CCCl)CCCl)cc2)ccc2cc(I)ccc21`, the TGI was > 100 µM in the assay on DMS 114 small cell lung; 6.14 µM in the assay with DLD-1 colon; 1.88 µM in the assay on KM20L2 colon; 8.54 µM with HOP-18 NSCLC; 36 µM in the assay on SNB-78 CNS.
Consider `OC12c3ccccc3C1CCCCCC21OCCCO1` (centres undefined), for which the TGI in the assay with DMS 114 small cell lung, in the assay on M19-MEL melanoma, in the assay on DLD-1 colon, in the assay with DMS 273 small cell lung, in the assay with KM20L2 colon and in the assay on HOP-18 NSCLC was > 100 µM throughout. Moreover, the TGI with SNB-78 CNS is > 100 µM.
